The numbers were not newly measured in US20040167132A1, “Methods of treating conditions associted with an Edg-2 receptor” (priority 2003, published 2004), which cites them from elsewhere.

Where a name gives a salt, the structure may show the parent alone.

The target in series [1] is Adrenergic β. The following applies: radioligand; Wistar rat brain; historical value.
Series [2] addresses T1, Angiotensin AT2 (Homo sapiens, UniProt P50052).
T1 construct: expressed in transfected cells; host or cells: HeLa cells
T1 sequence (P50052 1-363): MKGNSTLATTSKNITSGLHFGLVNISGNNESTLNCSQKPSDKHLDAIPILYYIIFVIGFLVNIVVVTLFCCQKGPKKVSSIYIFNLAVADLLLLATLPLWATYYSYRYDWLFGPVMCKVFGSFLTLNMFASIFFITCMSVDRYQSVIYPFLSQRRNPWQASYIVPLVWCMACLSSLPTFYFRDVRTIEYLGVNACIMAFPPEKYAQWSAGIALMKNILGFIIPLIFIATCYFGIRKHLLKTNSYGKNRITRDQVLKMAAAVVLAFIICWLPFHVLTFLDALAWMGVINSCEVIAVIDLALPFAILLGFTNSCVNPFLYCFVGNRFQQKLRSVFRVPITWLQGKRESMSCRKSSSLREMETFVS
As to conditions: radioligand; Human recombinant Hela cells; historical value.

Series [3] has as its target Adrenergic α1 non-selective.
The target in series [4] is Serotonin 5-HT1, non-selective. As to conditions: radioligand; Wistar rat cerebral cortex; historical value.

Consider `CCCc1ccccc1OCC(O)CNC(C)C` (stereo not shown) [^3H Dihydroaplenolol, Dihydroaplenolol], for which the Kd (commonly the free concentration of one partner at which half of the binding sites on the other are occupied at equilibrium, for simple one-to-one binding) in series [1] is 0.5 nM.

In the case of CGP-42112A [^125I CGP-42112A], in series [2], the Kd was 0.012 nM.

As to `COc1cc2nc(N3CCN(C(=O)c4ccco4)CC3)nc(N)c2cc1OC` [^3H Prazosin, Prazosin], in series [3], the Kd is 0.29 nM.

Take `NCCc1c[nH]c2ccc(O)cc12` [^3H Serotonin (5-HT) Trifluoroacetate, Serotonin (5-HT) Trifluoroacetate]: the equilibrium dissociation constant (Kd) in series [4] was 0.61 nM.
